Source: US20230024438A1, “INHIBITORS OF HIF-2ALPHA” (ARCUS BIOSCIENCES, INC., priority 2019, published 2023)

Assays:
[1] = target: T1, Histidine tagged HIF-2α protein containing PAS-B domain (240-350) (Homo sapiens, UniProt Q99814); test: HIF-2α Scintillation Proximity Assay (SPA); type: binding; settings: 50 nM HIF-2α protein, 25 nM radiolabeled tracer; read-out: HIF-2α Scintillation Proximity Assay
T1 construct: Histidine tagged HIF-2α protein containing PAS-B domain (240-350) was prepared and purified in house; made in house
Description: Tritium labeled compound N-(3-chlorophenyl)-4-nitro-2,1,3-benzoxadiazol-5-amine was obtained from American Radiolabeled Chemicals Inc. and copper chelate PVT SPA beads were from PerkinElmer (Cat #RPNQ0095). Histidine tagged HIF-2α protein containing PAS-B domain (240-350) was prepared and purified in house.
Compounds solubilized in DMSO were dispensed into a white 384-well polystyrene non-binding flat clear bottom plate (Greiner Bio-One, Cat #781903) using an HP D300 dispenser. Ten microliters of HIS-tagged HIF-2α protein in buffer (25 mM Tris-HCl, pH 7.4, 150 mM NaCl, 0.15% BSA and 0.001% Tween 20) was added to the compound wells and allowed to incubate for 1 hour at room temperature. Ten microliters of SPA bead mix were added to the wells and incubated for an additional 45 minutes, followed by 10 ul of ^3H-tracer solution. Final assay conditions comprised 50 nM HIF-2α protein, 25 nM radiolabeled tracer and 3 ug beads per well with compounds in 2% DMSO. The plate was read using a MicroBeta Microplate Counter (PerkinElmer) for luminescence detection. The IC50 values of the test compounds were determined from compound dose response curves fitted using a standard four parameter fit equation and are reported in Table 1.

[2] = target: T2, HIF-2α (Homo sapiens, UniProt Q99814); test: HIF-2α Luciferase Reporter Assay; type: cell-based; settings: HIF-Luc-786-0 cells, 20 hours incubation, luciferase activity; read-out: HIF-2α Luciferase Assay
T2 construct: endogenous in cells; host or cells: 786-O cells (ATCC CRL-1932) stably carrying the Cignal Lenti HIF Luc Reporter
Description: Stable cell lines were generated by transducing 786-O cells (ATCC, CRL-1932) with Cignal Lenti HIF Luc Reporter lentivirus (CLS-007L, Qiagen) according to the manufacturer's guidelines. In brief, 0.3×10^6 786-0 cells were transduced with lentivirus at a Multiplicity of Infection (MOI) of 25 for 24 hours. After transduction, cells were replenished with fresh RPMI 1640 Medium (Cat. No. 11875085, Thermo Fisher,) supplemented with 10% FBS (Cat. No. A3160502, Gibco), 2 mM GlutaMax (Cat. No. 35050-061, Invitrogen) and 100 units of penicillin and 100 μg of streptomycin/mL (Cat. No 15070063, Thermo Fisher) for another 24 hours. Antibiotic selection was performed in cell media containing 4 μg/mL of Puromycin. After 7 days of antibiotic selection, stable pools of surviving cells were expanded and used in a luciferase reporter assay.
On day one, 20 uL of HIF-Luc-786-0 cells in OptiMem (Cat. No. 31985088, Thermo Fisher) were seeded into each well of a 384 well white opaque plate (Corning 3570) and incubated at 37° C. and 5% CO2. Twenty microliters of 2× test compounds in OptiMem were added to cells after 4 hours of incubation. Final assay conditions comprised 20,000 cells per well in 1% DMSO with test compound concentrations ranging from 50 uM to 0 uM. After 20 hours incubation at 37° C. and 5% CO2, luciferase activity was determined using ONE-Glo Luciferase Assay Reagent (E6110, Promega) following the manufacture's recommended procedure. Briefly, 40 uL of ONE-Glo luciferase reagents were added to each well and luciferase signals were measured using an Envision 2102 Multilabel Reader. Percentage maximum activity in each test well was calculated based on DMSO (maximum activity) and no cell control wells (baseline activity). The IC50 values of the test compounds were determined from compound dose response curves fitted using a standard four parameter fit equation.

T2 sequence (Q99814 whole entry): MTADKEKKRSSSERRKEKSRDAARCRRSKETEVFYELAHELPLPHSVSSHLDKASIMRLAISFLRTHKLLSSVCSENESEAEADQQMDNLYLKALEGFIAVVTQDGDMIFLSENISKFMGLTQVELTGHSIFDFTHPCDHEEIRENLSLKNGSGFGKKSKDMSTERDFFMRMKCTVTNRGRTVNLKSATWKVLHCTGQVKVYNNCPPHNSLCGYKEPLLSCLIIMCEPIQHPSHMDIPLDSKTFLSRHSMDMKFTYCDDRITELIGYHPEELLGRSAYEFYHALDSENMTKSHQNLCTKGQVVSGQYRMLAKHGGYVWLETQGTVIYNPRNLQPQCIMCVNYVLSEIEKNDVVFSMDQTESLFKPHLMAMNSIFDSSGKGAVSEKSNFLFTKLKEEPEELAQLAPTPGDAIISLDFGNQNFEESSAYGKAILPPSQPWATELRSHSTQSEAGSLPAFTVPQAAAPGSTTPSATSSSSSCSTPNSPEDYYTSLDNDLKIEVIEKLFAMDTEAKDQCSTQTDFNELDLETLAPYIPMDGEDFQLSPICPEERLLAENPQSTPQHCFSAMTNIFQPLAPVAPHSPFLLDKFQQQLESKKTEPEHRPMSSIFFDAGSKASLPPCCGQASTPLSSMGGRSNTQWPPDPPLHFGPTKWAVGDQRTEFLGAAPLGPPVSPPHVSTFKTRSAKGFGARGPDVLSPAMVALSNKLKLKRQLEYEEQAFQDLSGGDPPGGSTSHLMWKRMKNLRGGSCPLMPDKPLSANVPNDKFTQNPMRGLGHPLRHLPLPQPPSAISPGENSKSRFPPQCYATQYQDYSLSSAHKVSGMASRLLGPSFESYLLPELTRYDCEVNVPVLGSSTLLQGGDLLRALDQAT
T1 sequence (Q99814 240-350): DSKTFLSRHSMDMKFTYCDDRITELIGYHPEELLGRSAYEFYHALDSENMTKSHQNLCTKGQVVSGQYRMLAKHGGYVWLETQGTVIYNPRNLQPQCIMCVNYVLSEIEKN

Compound `N#Cc1cc(Oc2ccc(S(=O)(=O)C(F)(F)F)c3[nH]ncc23)ccc1Cl` [Example 35, 2-Chloro-5-[[7-(trifluoromethylsulfonyl)-1H-indazol-4-yl]oxy]benzonitrile] has an IC50 [1] of 1 to 10 µM and an IC50 [2] greater than 10 µM.

In the case of `N#Cc1cc(F)cc(Nc2cc(Cl)cc3[nH]ncc23)c1` [Example 65, 3-[(6-Chloro-1H-indazol-4-yl)amino]-5-florobenzonitrile], the IC50 [2] is reported as 1 to 10 µM.

With `N#Cc1ccc(F)c(Oc2ccc(S(=O)(=O)C(F)(F)F)c3[nH]ncc23)c1` [Example 44, 4-Fluoro-3-[(7-trifluoromethanesulfonyl-1H-indazol-4-yl)oxy]benzonitrile] the IC50 [2] was greater than 10 µM.

Compound `CS(=O)(=O)c1ccc(Oc2cc(F)cc(Cl)c2)c2c(Cl)n[nH]c12` [Example 9, 3-Chloro-4-(3-chloro-5-fluorophenoxy)-7-methanesulfonyl-1H-indazole] has an IC50 [1] greater than 10 µM and an IC50 [2] of 1 to 10 µM.

For `N#Cc1cc(F)cc(Nc2ccc(C(F)(F)F)c3[nH]ncc23)c1` [Example 14, 3-Fluoro-5-[7-(trifluoromethyl)-1H-indazol-4-ylamino]benzonitrile], the IC50 [1] was 1 to 10 µM and the IC50 [2] was 1 to 10 µM.

`N#Cc1cccc(Oc2ccc(S(=O)(=O)C(F)(F)F)c3[nH]ncc23)c1` [Example 42, 3-[[7-(Trifluoromethylsulfonyl)-1H-indazol-4-yl]oxy]benzonitrile] showed an IC50 [1] of less than 1 µM and an IC50 [2] of 1 to 10 µM.

In the case of `N#Cc1ccc(Oc2ccc(S(=O)(=O)C(F)(F)F)c3[nH]ncc23)cc1F` [Example 34, 2-Fluoro-4-[[7-(trifluoromethylsulfonyl)-1H-indazol-4-yl]oxy]benzonitrile], the IC50 [1] is reported as greater than 10 µM and the IC50 [2] is reported as greater than 10 µM.

`O=S(=O)(c1ccc(Oc2ccc(F)cc2)c2cn[nH]c12)C(F)(F)F` [Example 18, 4-(p-Fluorophenoxy)-7-(trifluoromethylsulfonyl)-1H-indazole] was tested, and the IC50 [1] was greater than 10 µM and the IC50 [2] was 1 to 10 µM.

For `N#Cc1cc(F)cc(Oc2cnc(C(F)(F)F)c3[nH]ncc23)c1` [Example 68, 3-Fluoro-5-{[7-(trifluoromethyl)-1H-pyrazolo[3,4-c]pyridin-4-yl]oxy}benzonitrile], the IC50 [1] was 1 to 10 µM and the IC50 [2] was 1 to 10 µM.

For `N#Cc1cc(F)cc(Nc2cncc3[nH]ncc23)c1` [Example 66, 3-Fluoro-5-({1H-pyrazolo[3,4-c]pyridin-4-yl}amino)benzonitrile], the IC50 [2] was 1 to 10 µM.

In the case of `CS(=O)(=O)c1ccc(Oc2cc(F)cc(C#N)c2)c2c(C#N)n[nH]c12` [Example 10, 4-(3-Cyano-5-fluorophenoxy)-7-methanesulfonyl-1H-indazole-3-carbonitrile], the IC50 [1] is reported as greater than 10 µM and the IC50 [2] is reported as 1 to 10 µM.

For `O=S(=O)(c1ccc(Oc2cc(F)cc(Cl)c2)c2cn[nH]c12)C(F)(F)F` [Example 40, 4-(3-Chloro-5-fluorophenoxy)-7-(trifluoromethylsulfonyl)-1H-indazole], the IC50 [1] was less than 1 µM and the IC50 [2] was 1 to 10 µM.

Compound `Cc1cncc(Oc2ccc(S(=O)(=O)C(F)(F)F)c3[nH]ncc23)n1` [Example 21, 4-[(6-Methylpyrazin-2-yl)oxy]-7-trifluoromethanesulfonyl-1H-indazole] has an IC50 [1] greater than 10 µM and an IC50 [2] greater than 10 µM.

Work on `O=S(=O)(c1ccc(NCc2ccc(F)cc2)c2cn[nH]c12)C(F)(F)F` [Example 52, N-[(4-fluorophenyl)methyl]-7-(trifluoromethylsulfonyl)-1H-indazol-4-amine] yielded an IC50 [1] greater than 10 µM and an IC50 [2] greater than 10 µM.

Work on `O=S(=O)(c1ccc(NCc2cc(Cl)cc(Cl)c2)c2cn[nH]c12)C(F)(F)F` [Example 56, N-[(3,5-dichlorophenyl)methyl]-7-(trifluoromethylsulfonyl)-1H-indazol-4-amine] yielded an IC50 [1] greater than 10 µM and an IC50 [2] greater than 10 µM.

`O=S(=O)(c1ccc(Nc2cc(F)cc(Cl)c2)c2cn[nH]c12)C(F)(F)F` [Example 47, (3-Chloro-5-fluorophenyl)[7-(trifluoromethylsulfonyl)-1H-indazol-4-yl]amine] showed an IC50 [1] of 1 to 10 µM and an IC50 [2] greater than 10 µM.

For `Cc1n[nH]c2c(S(=O)(=O)C(F)(F)F)ccc(Oc3cc(F)cc(C#N)c3)c12` [Example 58, 3-Fluoro-5-[(3-methyl-7-trifluoromethanesulfonyl-1H-indazol-4-yl)oxy]benzonitrile], the IC50 [1] was 1 to 10 µM and the IC50 [2] was 1 to 10 µM.

For `CS(=O)(=O)c1ccc(Oc2cc(F)cc(C#N)c2)c2c(CO)n[nH]c12` [Example 11, 3-Fluoro-5-{[3-(hydroxymethyl)-7-methanesulfonyl-1H-indazol-4-yl]oxy}benzonitrile], the IC50 [1] was greater than 10 µM and the IC50 [2] was 1 to 10 µM.

`N#Cc1cc(F)cc(Oc2ccc(S(=O)(=O)C(F)(F)F)c3[nH]nc(Cl)c23)c1` [Example 61, 3-[(3-Chloro-7-trifluoromethanesulfonyl-1H-indazol-4-yl)oxy]-5-fluorobenzonitrile] was tested, and the IC50 [1] was less than 1 µM and the IC50 [2] was greater than 10 µM.

`Fc1cc(Cl)cc(Oc2cnc(C(F)(F)F)c3[nH]ncc23)c1` [Example 69, 4-(3-Chloro-5-fluorophenoxy)-7-(trifluoromethyl)-1H-pyrazolo[3,4-c]pyridine] was tested, and the IC50 [1] was 1 to 10 µM and the IC50 [2] was 1 to 10 µM.

In the case of `O=S(=O)(c1ccc(Oc2ccc(F)c(Cl)c2)c2cn[nH]c12)C(F)(F)F` [Example 38, 4-(3-Chloro-4-fluorophenoxy)-7-(trifluoromethylsulfonyl)-1H-indazole], the IC50 [1] is reported as 1 to 10 µM and the IC50 [2] is reported as 1 to 10 µM.

Compound `O=S(=O)(c1ccc(Nc2cc(F)cc(F)c2)c2cn[nH]c12)C(F)(F)F` [Example 46, (3,5-Difluorophenyl)[7-(trifluoromethylsulfonyl)-1H-indazol-4-yl]amine] has an IC50 [1] of 1 to 10 µM and an IC50 [2] greater than 10 µM.

For `N#Cc1cc(F)cc(Nc2ccc(S(=O)(=O)C(F)(F)F)c3[nH]ncc23)c1` [Example 45, 3-Fluoro-5-[(7-trifluoromethanesulfonyl-1H-indazol-4-yl)amino] benzonitrile], the IC50 [1] was 1 to 10 µM and the IC50 [2] was 1 to 10 µM.

`O=S(=O)(c1ccc(Oc2cccc(C(F)(F)F)c2)c2cn[nH]c12)C(F)(F)F` [Example 32, 4-[3-(Trifluoromethyl)phenoxy]-7-(trifluoromethylsulfonyl)-1H-indazole] was tested, and the IC50 [1] was greater than 10 µM and the IC50 [2] was greater than 10 µM.

In the case of `N#Cc1ccc(Cl)c(Oc2ccc(S(=O)(=O)C(F)(F)F)c3[nH]ncc23)c1` [Example 43, 4-Chloro-3-[(7-trifluoromethanesulfonyl-1H-indazol-4-yl)oxy]benzonitrile], the IC50 [2] is reported as 1 to 10 µM.

For `CS(=O)(=O)c1ccc(Oc2ccc(Cl)c(Cl)c2)c2cn[nH]c12` [Example 6, 4-(3,4-Dichlorophenoxy)-7-methanesulfonyl-1H-indazole], the IC50 [2] was 1 to 10 µM.

Work on `CS(=O)(=O)c1ccc(Oc2cc(F)cc(C#N)c2)c2cn[nH]c12` [Example 3, 3-Fluoro-5-[(7-methanesulfonyl-1H-indazol-4-yl)oxy]benzonitrile] yielded an IC50 [2] greater than 10 µM.

Compound `CS(=O)(=O)c1ccc(Oc2cccc(Cl)c2)c2cn[nH]c12` [Example 5, 4-(3-Chlorophenoxy)-7-methanesulfonyl-1H-indazole] has an IC50 [2] of 1 to 10 µM.

Compound `O=S(=O)(c1ccc(N2CCCc3cc(F)cc(F)c32)c2cn[nH]c12)C(F)(F)F` [Example 49, 6,8-Difluoro-1-(7-trifluoromethanesulfonyl-1H-indazol-4-yl)-1,2,3,4-tetrahydroquinoline] has an IC50 [2] greater than 10 µM.

In the case of `N#Cc1cc(F)cc(Nc2ncnc3[nH]ncc23)c1` [Example 67, 3-Fluoro-5-({1H-pyrazolo[3,4-d]pyrimidin-4-yl}amino)benzonitrile], the IC50 [2] is reported as 1 to 10 µM.

In the case of `N#Cc1cc(C#N)cc(Oc2ccc(S(=O)(=O)C(F)(F)F)c3[nH]ncc23)c1` [Example 22, 5-[(7-Trifluoromethanesulfonyl-1H-indazol-4-yl)oxy]benzene-1,3-dicarbonitrile], the IC50 [1] is reported as 1 to 10 µM.

`CS(=O)(=O)c1ccc(Nc2cc(F)cc(C#N)c2)c2cn[nH]c12` [Example 1, 3-Fluoro-5-[(7-methanesulfonyl-1H-indazol-4-yl)amino]benzonitrile] gave an IC50 [2] of 1 to 10 µM.
